According to patent US9138437B2, “Pyrimidine substituted purine compounds as kinase (S) inhibitors” (VERASTEM, INC., priority 2009, dated 2015):
Converted amounts (≈) assume the structure as drawn. Where two headings read alike, the source gives them in different places.

Experiments:
[1] = in vitro; conditions: human, pH 7.4; for half-life: microsomes
Description: Verapamil, purchased from Sigma-Aldrich, is used as a reference standard in the assay. HLM are purchased from Xeno Tech (20 mg/mL in 250 mM sucrose solution). A 100 mM stock solution of potassium phosphate buffer is pre-prepared by combining 80 mL of 1M K2HPO4 and 20 mL of 1 M KH2PO4 in 900 mL of water (pH adjusted to 7.4 using diluted HCl) and stored at room temperature. K2HPO4.3H20 and KH2PO4 are obtained from Sigma Aldrich and the NADPH Regeneration System Solutions A and B from Gentest. The stop solution used to quench the reaction is a pre-prepared mixture of acetonitrile and DMSO (80:20) and is stored at 4° C. All solvents used are HPLC grade and the water used during the stock solution preparation and during LC-MS analysis is deionised using a Milli-Q system.
8 μL of the compound mix is then added to 72 μL of a pre-prepared incubation mix made up of water (2250 μL), 100 mM potassium phosphate buffer (2900 μL), NADPH Regeneration System Solution B (58 μL), NADPH Regeneration System Solution A (290 μL) and HLM (250 μL). The resulting reaction mixture (final compound concentration of 5 μM) is then incubated at 37° C. in a B. Braun Certomat H incubator after which a 50 μL aliquot is dispensed to a well on a separate plate well containing 100 μL of Stop solution. […] Each test compound is sampled multiple times and incubated for a series of time points (5, 15, 30, 45 and 60 min). Remaining compound concentration is determined by LC-MS (ABI Qtrap 3200) and comparison to a reference solution of known concentration. Stability is then expressed as a half-life in minutes (t½).

[2] = physchem; conditions: pH 7, aqueous buffer, kinetic from dmso stock
Description: (§1) Compound solubility is determined in a high-throughput kinetic solubility profiling method using a 96-well format. Compound solubility is assessed using a UV/Visible Microplate Spectrophotometer (Molecular Devices SpectraMax Plus384). Vorinostat (SAHA) and Nicardipine, purchased from Sigma, are used as reference standards.
(§2) The mixture is then shaken at 600 rpm for 1.5 h and allowed to stand at room temperature for 2 h. […] The resulting supernatant (80 μL) is transferred to the UV-analysis plate and diluted with DMSO (20 μL). The samples are quantified using calibration stocks of the respective compound made in phosphate buffer/DMSO (80:20).

[3] = High throughput solubility assay (kinetic, UV); conditions: pH 7
Description: as §1, §2

half-life at 5 μM ([1]; liver microsomes)	solubility, assessment in words [3]	Compound	solubility, assessment in words (pH 7)	half-life [1]	solubility [2]	solubility, assessment in words (as drug candidate)
–	–	Cc1nc2c(-c3cnc(N)nc3)nc(N3CCOCC3)nc2n1C(C)C [Cmpd of the invention, 5-(9-isopropyl-8-methyl-2-morpholin-4-yl-9H-purin-6-yl)-pyrimidin-2-ylamine]	acceptable	–	–	–
–	–	CCC(C)n1c(Br)nc2c(-c3cnc(N)nc3)nc(N3CCOCC3)nc21 (stereo not shown) [Cmpd A]	–	> 60 min	44 µM (≈ 19.1 µg/mL)	low solubility
–	–	CCc1nc2c(-c3cnc(N)nc3)nc(N3CCOCC3)nc2n1C(C)C [Cmpd C]	–	36 min	> 250 µM	acceptable
> 60 min	low solubility	CC(C)n1c(Br)nc2c(-c3cnc(N)nc3)nc(N3CCOCC3)nc21 [Cmpd B]	–	–	18 µM (≈ 7.55 µg/mL)	–
–	–	CCC(C)n1cnc2c(-c3cnc(N)nc3)nc(N3CCOCC3)nc21 (stereo not shown) [Cmpd E]	–	> 60 min	35 µM (≈ 12.4 µg/mL)	low solubility
–	–	CCC(C)n1c(C)nc2c(-c3cnc(N)nc3)nc(N3CCOCC3)nc21 (stereo not shown) [Cmpd D]	–	26 min	> 250 µM	acceptable
